{
  "source": "patent US20070191291A1",
  "about": "“Compound antibacterial drugs comprising n-acetyl-d-glucosamine” (priority 2003, published 2007)",
  "key": {"[1]": {"test_system": "irritable bowel syndrome (IBS) caused by bacterial CGC", "assay": "Test Example 5: preventing irritable bowel syndrome (IBS) caused by bacterial CGC", "type": "in vivo, rats", "excerpt": "On this basis, the rats were subjected to stimulations such as electric stimulation, intragastric administration with fructus zanthoxyli water, cold, constraint etc. in order to induce IBS, and the incidence rates of IBS of two groups were observed."}, "[2]": {"test_system": "rats infected and not infected by Bacillus typhi murium", "type": "in vivo, Wistar rats", "conditions": "rats infected or not by Bacillus typhi murium; N-acetyl-D-glucosamine (100 mg)+spiramycin (900 mg) vs only spiramycin; consecutive week; 15 rats per group"}, "Bacillus cereus": {"test_system": "Bacillus cereus", "assay": "Test Example 2: preventing formation of bacterial CGC in vitro (K-B method)", "type": "cell-based", "procedure": "(§1) E. coli (No. 33310, purchased from Chengdu Institute of Biological Products, the Ministry of Public Health) was used in the tests. Grid design was performed by using antibiotic with different concentrations and N-acetyl-D-glucosamine having an amount of from 10 mg to 300 mg. Streak plates were conducted separately, and K-B method was employed for drugs. Colonies at marginal part of drug inhibition zone were picked and were observed under microscope. If cell length was more than 50 μm and cell number was more than 5 in each visual field, it was deemed as CGC positive and was marked with “+”; while if cell length was not greater than 50 μm and cell number was within the range from 0 to 4 in each visual field, it was deemed as CGC negative and was marked with “−”. At this time, the ratio of two substances was called “effective ratio”.\n(§2) Effects tests of compound preparation comprising N-acetyl-D-glucosamine and antibiotics for preventing the formation of bacterial CGC in vitro.\n(§3) The tests were carried out in vitro, wherein gram-negative amphimicrodes, gram-negative anaerobes and gram-positive aerobes were separately coated on streak plates, test drugs and control drugs were separately dissolved with same volume of sterile water for injection, 10 μl of each drug was used for preparing drug-sensitive paper, K-B method was employed in the tests of drugs, and the inhibition situations of CGC formation were observed."}, "Klebsiella": {"test_system": "Klebsiella", "assay": "Test Example 2: preventing formation of bacterial CGC in vitro (K-B method)", "type": "cell-based", "procedure": "as §1, §2, §3"}, "Bacillus proteus": {"test_system": "Bacillus proteus", "assay": "Test Example 2: preventing formation of bacterial CGC in vitro (K-B method)", "type": "cell-based", "procedure": "as §1, §2, §3"}, "Bacteroides fragilis": {"test_system": "Bacteroides fragilis", "assay": "Test Example 2: preventing formation of bacterial CGC in vitro (K-B method)", "type": "cell-based", "procedure": "as §1, §2, §3"}, "Nucleic Acid Bacter": {"test_system": "Nucleic Acid Bacter", "assay": "Test Example 2: preventing formation of bacterial CGC in vitro (K-B method)", "type": "cell-based", "procedure": "as §1, §2, §3"}, "Citro Bacter": {"test_system": "Citro Bacter", "assay": "Test Example 2: preventing formation of bacterial CGC in vitro (K-B method)", "type": "cell-based", "procedure": "as §1, §2, §3"}, "Diphtheroid bacillus": {"test_system": "Diphtheroid bacillus", "assay": "Test Example 2: preventing formation of bacterial CGC in vitro (K-B method)", "type": "cell-based", "procedure": "as §1, §2, §3"}, "Listeria": {"test_system": "Listeria", "assay": "Test Example 2: preventing formation of bacterial CGC in vitro (K-B method)", "type": "cell-based", "procedure": "as §1, §2, §3"}, "E. coli": {"test_system": "E. coli", "assay": "Test Example 2: preventing formation of bacterial CGC in vitro (K-B method)", "type": "cell-based", "procedure": "as §1, §2, §3"}, "[3]": {"conditions": "compound preparation 100 mg N-acetyl-D-glucosamine + 900 mg spiramycin, control 900 mg spiramycin"}, "[4]": {"conditions": "compound preparation 100 mg N-acetyl-D-glucosamine + 1500 mg ampicillin-sulbactam, control drug was ampicillin-sulbactam"}},
  "data": [
    {"substance": "spiramycin", "values": [
      {"measurement": "incidence rate of IBS", "setting": "[1]; first of three values given respectively: electric stimulation", "result": 33, "unit": "%"},
      {"measurement": "CGCs in the rat stools after one week of drug withdrawal", "setting": "[1]; rats, effective dosage for consecutive 10 days, 30 rats per group", "result": "still present"},
      {"measurement": "CGCs in the stools of the rats", "setting": "[1]; rats, effective dosage for consecutive 10 days, stools observed during administration and within 1 week after drug withdrawal, 30 rats per group", "result": "a large amount of CGCs appeared"},
      {"measurement": "incidence rate of IBS", "setting": "[1]; second of three values given respectively: intragastric administration with fructus zanthoxyli water", "result": 33, "unit": "%"},
      {"measurement": "incidence rate of IBS", "setting": "[1]; third of three values given respectively: cold, constraint etc.", "result": 33, "unit": "%"},
      {"measurement": "positive rates of stool CGC and intestinal mucosa CGC", "setting": "[2]", "result": 100, "unit": "%"},
      {"measurement": "CGC formation", "setting": "Bacillus cereus; [3]", "result": "+ (If cell length was more than 50 μm and cell number was more than 5 in each visual field, it was deemed as CGC positive and was marked with “+”)"},
      {"measurement": "CGC formation", "setting": "Bacillus cereus; [4]", "result": "+ (If cell length was more than 50 μm and cell number was more than 5 in each visual field, it was deemed as CGC positive and was marked with “+”)"},
      {"measurement": "CGC formation", "setting": "Klebsiella; [3]", "result": "+ (If cell length was more than 50 μm and cell number was more than 5 in each visual field, it was deemed as CGC positive and was marked with “+”)"},
      {"measurement": "CGC formation", "setting": "Klebsiella; [4]", "result": "+ (If cell length was more than 50 μm and cell number was more than 5 in each visual field, it was deemed as CGC positive and was marked with “+”)"},
      {"measurement": "CGC formation", "setting": "Bacillus proteus; [3]", "result": "+ (If cell length was more than 50 μm and cell number was more than 5 in each visual field, it was deemed as CGC positive and was marked with “+”)"},
      {"measurement": "CGC formation", "setting": "Bacillus proteus; [4]", "result": "+ (If cell length was more than 50 μm and cell number was more than 5 in each visual field, it was deemed as CGC positive and was marked with “+”)"},
      {"measurement": "CGC formation", "setting": "Bacteroides fragilis; [3]", "result": "+ (If cell length was more than 50 μm and cell number was more than 5 in each visual field, it was deemed as CGC positive and was marked with “+”)"},
      {"measurement": "CGC formation", "setting": "Bacteroides fragilis; [4]", "result": "+ (If cell length was more than 50 μm and cell number was more than 5 in each visual field, it was deemed as CGC positive and was marked with “+”)"},
      {"measurement": "CGC formation", "setting": "Nucleic Acid Bacter; [3]", "result": "+ (If cell length was more than 50 μm and cell number was more than 5 in each visual field, it was deemed as CGC positive and was marked with “+”)"},
      {"measurement": "CGC formation", "setting": "Nucleic Acid Bacter; [4]", "result": "+ (If cell length was more than 50 μm and cell number was more than 5 in each visual field, it was deemed as CGC positive and was marked with “+”)"},
      {"measurement": "CGC formation", "setting": "Citro Bacter; [3]", "result": "+ (If cell length was more than 50 μm and cell number was more than 5 in each visual field, it was deemed as CGC positive and was marked with “+”)"},
      {"measurement": "CGC formation", "setting": "Citro Bacter; [4]", "result": "+ (If cell length was more than 50 μm and cell number was more than 5 in each visual field, it was deemed as CGC positive and was marked with “+”)"},
      {"measurement": "CGC formation", "setting": "Diphtheroid bacillus; [3]", "result": "+ (If cell length was more than 50 μm and cell number was more than 5 in each visual field, it was deemed as CGC positive and was marked with “+”)"},
      {"measurement": "CGC formation", "setting": "Diphtheroid bacillus; [4]", "result": "+ (If cell length was more than 50 μm and cell number was more than 5 in each visual field, it was deemed as CGC positive and was marked with “+”)"},
      {"measurement": "CGC formation", "setting": "Listeria; [3]", "result": "+ (If cell length was more than 50 μm and cell number was more than 5 in each visual field, it was deemed as CGC positive and was marked with “+”)"},
      {"measurement": "CGC formation", "setting": "Listeria; [4]", "result": "+ (If cell length was more than 50 μm and cell number was more than 5 in each visual field, it was deemed as CGC positive and was marked with “+”)"},
      {"measurement": "CGC formation", "setting": "E. coli; [3]", "result": "+ (If cell length was more than 50 μm and cell number was more than 5 in each visual field, it was deemed as CGC positive and was marked with “+”)"},
      {"measurement": "CGC formation", "setting": "E. coli; [4]", "result": "+ (If cell length was more than 50 μm and cell number was more than 5 in each visual field, it was deemed as CGC positive and was marked with “+”)"}
    ]}
  ]
}
